Experimental data taken from patent publication US4231946A, “14,15-Methylene derivatives of the estrane series and methods for preparing same” (VEB Jenapharm, priority 1978, dated 1980).
Read-outs that look alike come from different tables or passages of the source.

Legend:
inseminated rats = test: Antinidation / Nidation Inhibition Test in inseminated rats treated on the 1st day of gestation; type: in vivo, rat; settings: for ED50 / ED5 / ED95: Rattus norvegicus, po
Description: The favorable biological properties of the named compounds of the process according to the invention are to be further illustrated and described in the example of 3-methoxy-14β-15β-methylene-estra-1,3,5(10)-triene-17β-ol (test designation STS 593).
(§1) Gestation and nidation inhibition expressed in % were used as parameters for antifertility effects. GHE1 (gestation inhibitory effect) and IHE1 (nidation inhibitory effect) were related to the inhibition of the total of gestations or nidations, GHE2 and IHE2 were related to the inhibition of normal gestations or nidations within each group. […] GHE1, GHE2, IHE1 and IHE2 were calculated using the following formulae: [formula] n=number of females inseminated in each group v=test group
k=control group (sesame oil)
x=number of all gestations (GHE1) and of normal gestations (GHE2) p. group, respectively
(§2) f=average number (x) of all implantations (IHE1) and of normal implantations (IHE2) p. female inseminated within a group, respectively.
The comparison of the relative incidence of gestations was performed by the Ryan test, the comparison of the number of implantations by the Dunn test.
(§3) For GHE1 and GHE2 the ED (effective doses) for the HE (inhibitory effect) 0%, 50%, and 95% as far as possible were determined by means of the probit analysis. The ED50 for IHE1 and IHE2 were determined graphically.

ovariectomized mice = test: Allen-Doisy test in ovariectomized mice (estrogenic properties); type: in vivo, mouse
Description: (§4) STS 593 was weaker than ethynylestradiol by a factor of 9 in its estrogenic properties as shown by the Allen-Doisy test in ovariectomized mice. The compound was only 7% as active as the standard mestranol in producing a uterine response in infantile rats (Table 3), whereas the antiestrogenic properties exceeded those of clomiphene citrate by a factor of 1.4.

[1] = test system: infantile female Wistar rats; test: Uterine activity in infantile female Wistar rats; type: in vivo, Wistar rat; settings: for Uterine weight (-x): n=10
Description: as §4
Comparison of uterine activity in infantile female
Wistar rats produced by STS 593 and mestranol

[2] = Antiestrogenic properties; settings: in vivo
Description: as §4

rats (testicular mass) = test: Antigonadotrophic activity (testicular mass) in rats; type: in vivo, rat; settings: for ED50: Rattus norvegicus; for IE %: testicular mass
Experimental: The effective dose for the HE50 was close to 0.65 mg/kg of body-wt./5 d, while mestranol has the same effect at a dose as low as 0.15 mg/kg of body-wt./5 d.

infantile male rats = test: Androgenic, anabolic and antiandrogenic effects in infantile male rats; type: in vivo, rat; settings: orally over 6 days, total doses 0.75-3.0 mg/animal
Description: (§5) The HE of 97.3% is significant (Table 5).

infantile rabbit uteri = test: McPhail test, progestagenic and antiprogestagenic activities in infantile rabbit uteri; type: in vivo
Description: as §5
Progestagenic and antiprogestagenic activities of STS 593
in infantile rabbit uteri as shown by the McPhail test

mice = test: Contraceptive activity in mice, single application on 1st day of gestation; type: in vivo, mouse; settings: mice, 10 mg/kg p.o., single application
Experimental: as §1, §2, §3
Uterine and contraceptive activities produced by selected
14,15-methylene-17-ol-estratrienes in mice

[3] = General statement on antifertility effects and separation from uterine, estrogenic and antigonadotrophic activities; type: in vivo; settings: compared to mestranol
[4] = 1st trial 1975, 0.1 mg/kg p.o., n=12
[5] = 1st trial 1975, 0.3 mg/kg p.o., n=12
[6] = 1st trial 1975, 0.9 mg/kg p.o., n=12
[7] = 2nd trial 1978, 0.08 mg/kg p.o., n=10
[8] = 2nd trial 1978, 0.16 mg/kg p.o., n=10
[9] = 2nd trial 1978, 0.32 mg/kg p.o., n=10
[10] = 2nd trial 1978, 0.64 mg/kg p.o., n=10
[11] = 2nd trial 1978, 1.28 mg/kg p.o., n=10
[12] = total dose 0.25 mg/kg of body-wt. p.o., n=9
[13] = total dose 0.50 mg/kg of body-wt. p.o., n=10
[14] = total dose 1.00 mg/kg of body-wt. p.o., n=10
[15] = 10 mg/kg p.o. + progesterone 4 mg/animal s.c., over 4 days, n=5

With `COc1ccc2c(c1)CC[C@@H]1[C@@H]2CC[C@]2(C)[C@@H](O)C[C@H]3C[C@@]312` [STS 593, 3-methoxy-14β,15β-methylene-estra-1,3,5(10)-triene-17β-ol] the “Female rats pregnant of n, normal” value (inseminated rats; [4]) was 10, the “Female rats pregnant of n, total” value (inseminated rats; [4]) was 10 and the GHE1 (inseminated rats; [4]) was 16.7%. It also gave a GHE2 (inseminated rats; [4]) of 16.7%, an IHE1 (inseminated rats; [4]) of 30.0% and an IHE2 (inseminated rats; [4]) of 34.7%. For the same compound, the “Implantations per female (-x), normal” value (inseminated rats; [4]) was 8.2, the “Implantations per female (-x), total” value (inseminated rats; [4]) was 8.8 and the “Female rats pregnant of n, normal” value (inseminated rats; [5]) was 5. The “Female rats pregnant of n, total” value (inseminated rats; [5]) was 8, the GHE1 (inseminated rats; [5]) was 33.3% and the GHE2 (inseminated rats; [5]) was 58.3%. For the same compound, the IHE1 (inseminated rats; [5]) was 70.0%, the IHE2 (inseminated rats; [5]) was 72.7% and the “Implantations per female (-x), normal” value (inseminated rats; [5]) was 3.4. The “Implantations per female (-x), total” value (inseminated rats; [5]) was 3.8, the “Female rats pregnant of n, normal” value (inseminated rats; [6]) was 3 and the “Female rats pregnant of n, total” value (inseminated rats; [6]) was 6. The GHE1 (inseminated rats; [6]) was 50.0%, the GHE2 (inseminated rats; [6]) was 75.0% and the IHE1 (inseminated rats; [6]) was 86.7%. The IHE2 (inseminated rats; [6]) was 94.7%, the “Implantations per female (-x), normal” value (inseminated rats; [6]) was 0.7 and the “Implantations per female (-x), total” value (inseminated rats; [6]) was 1.7. The “Female rats pregnant of n, normal” value (inseminated rats; [7]) was 9, the “Female rats pregnant of n, total” value (inseminated rats; [7]) was 9 and the GHE1 (inseminated rats; [7]) was 10%. For the same compound, the GHE2 (inseminated rats; [7]) was 10%, the IHE1 (inseminated rats; [7]) was 18.5% and the IHE2 (inseminated rats; [7]) was 19.2%. For the same compound, the “Implantations per female (-x), normal” value (inseminated rats; [7]) was 10.5, the “Implantations per female (-x), total” value (inseminated rats; [7]) was 10.6 and the “Female rats pregnant of n, normal” value (inseminated rats; [8]) was 2. The “Female rats pregnant of n, total” value (inseminated rats; [8]) was 10, the GHE1 (inseminated rats; [8]) was 0% and the GHE2 (inseminated rats; [8]) was 80%. For the same compound, the IHE1 (inseminated rats; [8]) was 32.3%, the IHE2 (inseminated rats; [8]) was 82.3% and the “Implantations per female (-x), normal” value (inseminated rats; [8]) was 2.3. The “Implantations per female (-x), total” value (inseminated rats; [8]) was 8.8, the “Female rats pregnant of n, normal” value (inseminated rats; [9]) was 3 and the “Female rats pregnant of n, total” value (inseminated rats; [9]) was 5. It also gave a GHE1 (inseminated rats; [9]) of 50%, a GHE2 (inseminated rats; [9]) of 70% and an IHE1 (inseminated rats; [9]) of 74.6%. The IHE2 (inseminated rats; [9]) was 86.1%, the “Implantations per female (-x), normal” value (inseminated rats; [9]) was 1.8 and the “Implantations per female (-x), total” value (inseminated rats; [9]) was 3.3. For the same compound, the “Female rats pregnant of n, normal” value (inseminated rats; [10]) was 0, the “Female rats pregnant of n, total” value (inseminated rats; [10]) was 4 and the GHE1 (inseminated rats; [10]) was 60%. For the same compound, the GHE2 (inseminated rats; [10]) was 100%, the IHE1 (inseminated rats; [10]) was 87.7% and the IHE2 (inseminated rats; [10]) was 100%. For the same compound, the “Implantations per female (-x), normal” value (inseminated rats; [10]) was 0, the “Implantations per female (-x), total” value (inseminated rats; [10]) was 1.6 and the “Female rats pregnant of n, normal” value (inseminated rats; [11]) was 0. The “Female rats pregnant of n, total” value (inseminated rats; [11]) was 2, the GHE1 (inseminated rats; [11]) was 80% and the GHE2 (inseminated rats; [11]) was 100%. For the same compound, the IHE1 (inseminated rats; [11]) was 88.5%, the IHE2 (inseminated rats; [11]) was 100% and the “Implantations per female (-x), normal” value (inseminated rats; [11]) was 0. For the same compound, the “Implantations per female (-x), total” value (inseminated rats; [11]) was 1.5, the ED50 (inseminated rats; according to trial No. 1, read-out: ED50 for IHE1) was 0.175 mg/kg and the ED50 (inseminated rats; according to trial No. 1, read-out: ED50 for IHE2) was 0.155 mg/kg. The ED50 (inseminated rats; determined graphically, STS 593 from trial No. 2, read-out: ED 50 for IHE1) was 0.22 mg/kg, the ED50 (inseminated rats; determined graphically, STS 593 from trial No. 2, read-out: ED 50 for IHE2) was 0.112 mg/kg and the ED5 (inseminated rats; probit analysis, STS 593 from trial No. 2, read-out: ED 05 for GHE1) was 0.078 mg/kg. It also gave an ED5 (inseminated rats; probit analysis, STS 593 from trial No. 2, read-out: ED 05 for GHE2) of 0.044 mg/kg, an ED50 (inseminated rats; probit analysis, STS 593 from trial No. 2, read-out: ED 50 for GHE1) of 0.474 mg/kg and an ED50 (inseminated rats; probit analysis, STS 593 from trial No. 2, read-out: ED 50 for GHE2) of 0.147 mg/kg. The ED95 (inseminated rats; probit analysis, STS 593 from trial No. 2, read-out: ED 95 for GHE1) was 2.59 mg/kg, the ED95 (inseminated rats; probit analysis, STS 593 from trial No. 2, read-out: ED 95 for GHE2) was 0.454 mg/kg and the “Contraceptive activity related to IHE1, compared to ethynylestradiol” value (inseminated rats; female rat) was “nearly double the activity of ethynylestradiol”. For the same compound, the “Contraceptive activity related to IHE1, compared to mestranol” value (inseminated rats; female rat) was “in the range of that of mestranol”, the “Estrogenic properties: factor weaker than ethynylestradiol” value (ovariectomized mice) was 9 factor and the “Uterine response, activity relative to mestranol” value ([1]; infantile rats) was 7%. The “Uterine weight (-x)” value ([1]; total dose 0.1 per animal over 3 days p.o.) was 27.63 mg, the “Uterine weight (-x)” value ([1]; total dose 1.0 per animal over 3 days p.o.) was 52.40 mg and the “Uterine weight (-x)” value ([1]; total dose 10.0 per animal over 3 days p.o.) was 75.90 mg. For the same compound, the “Antiestrogenic properties: factor exceeding clomiphene citrate” value [2] was 1.4 factor, the “Antiestrogenic properties (in words)” value ([2]; listed as 3-methoxy-14β,15β-methylene-estra-1,3,5(10)-triene-17β-ol) was “marked antiestrogenic properties” and the “Antiestrogenic properties (in words)” value ([2]; listed as 3-methoxy-14β-15β-methylene-estra-1,3,5(10)-triene-17β-ol) was “produces antiestrogenic and antiprogestagenic effects”. For the same compound, the ED50 (rats (testicular mass); 120 h, rats, read-out: Effective dose for the HE50, antigonadotrophic) was roughly 0.65 mg/kg, the ED50 (rats (testicular mass); po, antigonadotrophic, total dose p.o., read-out: HE 50 (the source's name)) was 0.65 mg/kg and the “Antigonadotrophic effect compared to mestranol” value (rats (testicular mass); rats) was “four times weaker than mestranol”. It also gave an IE % (rats (testicular mass); [12]) of 18.1%, an IE % (rats (testicular mass); [13]) of 39.6% and an IE % (rats (testicular mass); [14]) of 68.9%. For the same compound, the “Testicular mass (-x ± s-x)” value (rats (testicular mass); [12]) was 312.4 ± 42.5 mg, the “Testicular mass (-x ± s-x)” value (rats (testicular mass); [13]) was 272.3 ± 37.7 mg and the “Testicular mass (-x ± s-x)” value (rats (testicular mass); [14]) was 217.6 ± 24.2 mg. The Anabolic effects (infantile male rats) was “did not show any”, the Androgenic effects (infantile male rats) was “did not show any” and the Antiandrogenic effects (infantile male rats) was “did not show any”. For the same compound, the “McPhail index (-x)” value (infantile rabbit uteri; 2 mg/kg p.o. + progesterone 4 mg/animal s.c., over 4 days, n=6) was 3.8, the “McPhail index (-x)” value (infantile rabbit uteri; 2 mg/kg p.o. alone, total dose over 4 days, n=5) was 0 and the HE % (infantile rabbit uteri; [15]) was 26.7%. For the same compound, the “McPhail index (-x)” value (infantile rabbit uteri; [15]) was 2.2, the “McPhail index (-x)” value (infantile rabbit uteri; 50 mg/kg p.o. + progesterone 4 mg/animal s.c., over 4 days, n=6) was 0.08 and the HE % (infantile rabbit uteri; 50 mg/kg p.o. + progesterone 4 mg/animal s.c., over 4 days, significant) was 97.3%. For the same compound, the “Antiprogestagenic effects (in words)” value (infantile rabbit uteri; rabbit, in vivo) was “produces antiestrogenic and antiprogestagenic effects”, the Progestagenic activity (infantile rabbit uteri; rabbit, in vivo) was “lacking in progestagenic activity” and the Antiprogestagenic properties (infantile rabbit uteri; rabbits, oral, 50 mg/kg) was “showed antiprogestanenic properties”. The “THE, % after single application of 10 mg/kg of body-wt. on the 1st day of gestation p.o.” value (mice) was 80.2% and the “Separation of contraceptive properties and undesirable (estrogenic, antigonadotrophic, progestagenic) side-effects vs mestranol” value [3] was “more favorable separation”.
